Results from patent US20240083861A1, “HSD17B13 INHIBITORS AND USES THEREOF” (FL2022-001, Inc., priority 2020, published 2024).

target: T1, Recombinant human HSD17B13 enzyme (Homo sapiens, UniProt Q7Z5P4); assay: HSD17b13 NAD(P)H-Glo biochemical assay; conditions: 50 uM estradiol, 1 mM NAD+, NAD(P)H-Glo luminescence; read-out: HSD17β13 IC50
T1 sequence (Q7Z5P4 20-300): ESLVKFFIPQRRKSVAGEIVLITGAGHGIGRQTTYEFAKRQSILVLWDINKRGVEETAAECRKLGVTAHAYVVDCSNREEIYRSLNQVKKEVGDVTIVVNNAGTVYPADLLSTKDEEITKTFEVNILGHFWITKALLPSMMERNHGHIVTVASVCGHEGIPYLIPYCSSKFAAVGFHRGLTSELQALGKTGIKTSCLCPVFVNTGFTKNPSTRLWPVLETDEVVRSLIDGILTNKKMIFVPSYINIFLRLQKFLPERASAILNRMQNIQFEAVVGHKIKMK
In short: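 Luminescent NAD(P)H-Glo read-out, taken after 1 hour at RT, measured cofactor reduction. Substrate and cofactor were estradiol at 50 uM and NAD+ at 1 mM final, reacted with the recombinant human enzyme for 3 hours at 37° C in 20 mM Tris pH7.4, 0.002% Tween-20, 0.02% BSA. Compound was pre-incubated with enzyme for 20 minutes at RT.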

| Compound | IC50 |
| --- | --- |
| Cn1nc(-c2cc(C(F)(F)F)c(F)c(O)c2F)c2cnc(N3CCN(S(C)(=O)=O)CC3)cc21 [Compound 12.05, 2,6-Difluoro-3-(1-methyl-6-(4-(methylsulfonyl)piperazin-1-yl)-1H-pyrazolo[4,3-c]pyridin-3-yl)-5-(trifluoromethyl)phenol] | < 100 nM |
| Cn1nc(-c2ccc(Cl)c(O)c2Cl)c2cnc(N3CCN(S(C)(=O)=O)C4(CC4)C3)nc21 [Compound 12.07, 2,6-Dichloro-3-(1-methyl-6-(4-(methylsulfonyl)-4,7-diazaspiro[2.5]octan-7-yl)-1H-pyrazolo[3,4-d]pyrimidin-3-yl)phenol] | 1000 to 30000 nM |
| CS(=O)(=O)N1CCC(c2cc3[nH]nc(-c4cc(C(F)(F)F)cc(O)c4F)c3cn2)CC1 [Compound 13, 2-Fluoro-3-(6-(1-(methylsulfonyl)piperidin-4-yl)-1H-pyrazolo[4,3-c]pyridin-3-yl)-5-(trifluoromethyl)phenol] | 100 to 1000 nM |
| Cn1nc(-c2cc(C(F)(F)F)cc(O)c2F)c2cnc(C3CCN(S(C)(=O)=O)CC3)cc21 [Compound 13.01, 2-Fluoro-3-(1-methyl-6-(1-(methylsulfonyl)piperidin-4-yl)-1H-pyrazolo[4,3-c]pyridin-3-yl)-5-(trifluoromethyl)phenol] | 100 to 1000 nM |
| Cn1nc(-c2cc(O)c(F)c(C(F)(F)F)c2)c2ccc(C3=CCN(S(C)(=O)=O)CC3)cc21 [Compound 14.01, 2-Fluoro-5-(1-methyl-6-(1-(methylsulfonyl)-1,2,3,6-tetrahydropyridin-4-y1)-1H-indazol-3-y1)-3-(trifluoromethyl)phenol] | < 100 nM |
| Cc1cc(-c2n[nH]c3cc(C4=CCN(S(C)(=O)=O)CC4)ccc23)c(F)c(O)c1F [Compound 14.02, 2,6-Difluoro-3-methyl-5-(6-(1-(methylsulfonyl)-1,2,3,6-tetrahydropyridin-4-y1)-1H-indazol-3-y1)phenol] | < 100 nM |
| CS(=O)(=O)N1CC=C(c2cc3[nH]nc(-c4cc(O)c(F)c(C(F)(F)F)c4)c3cn2)CC1 [Compound 14.03, 2-Fluoro-5-(6-(1-(methylsulfony1)-1,2,3,6-tetrahydropyridin-4-yl)-1H-pyrazolo[4,3-c]pyridin-3-yl)-3-(trifluoromethyl)phenol] | 100 to 1000 nM |
| CS(=O)(=O)N1CCC(c2ccc3c(-c4cc(O)c(F)c(C(F)(F)F)c4)n[nH]c3c2)CC1 [Compound 15, 2-Fluoro-5-(6-(1-(methylsulfonyl)piperidin-4-yl)-1H-indazol-3-yl)-3-(trifluoromethyl)phenol] | 100 to 1000 nM |
| Cn1nc(-c2cc(O)c(F)c(C(F)(F)F)c2)c2ccc(C3CCN(S(C)(=O)=O)CC3)cc21 [Compound 15.02, 2-Fluoro-5-(1-methyl-6-(1-(methylsulfonyl)piperidin-4-y1)-1H-indazol-3-yl)-3-(trifluoromethyl)phenol] | 100 to 1000 nM |
| Cn1nc(-c2cc(C(F)(F)F)c(F)c(O)c2F)c2cnc(C3CCN(S(C)(=O)=O)CC3)nc21 [Compound 15.04, 2,6-Difluoro-3-(1-methyl-6-(1-(methylsulfony1)piperidin-4-y1)-1H-pyrazolo[3,4-d]pyrimidin-3-yl)-5-(trifluoromethyl)phenol] | < 100 nM |
| Cn1nc(-c2cc(C(F)(F)F)c(F)c(O)c2F)c2cnc(N3CCOC(CO)C3)nc21 (stereo not drawn) [Compound 18.02, 2,6-Difluoro-3-(6-(2-(hydroxymethyl)morpholino)-1-methyl-1H-pyrazolo[3,4-d]pyrimidin-3-y1)-5-(trifluoromethyl)phenol] | 100 to 1000 nM |

Second part, the compound after the results:

| IC50 | Compound |
| --- | --- |
| < 100 nM | CN(c1ncc2c(-c3cc(C(F)(F)F)c(F)c(O)c3F)nn(C)c2n1)C1CC1 [Compound 12.04, 3-(6-(Cyclopropyl(methyl)amino)-1-methyl-1H-pyrazolo[3,4-d]pyrimidin-3-yl)-2,6-difluoro-5-(trifluoromethyl)phenol] |
| 100 to 1000 nM | Cn1nc(-c2ccc(Cl)c(O)c2F)c2cnc(N3CCN(S(C)(=O)=O)C4(CC4)C3)nc21 [Compound 12.06, 6-Chloro-2-fluoro-3-(1-methyl-6-(4-(methylsulfonyl)-4,7-diazaspiro[2.5]octan-7-yl)-1H-pyrazolo[3,4-d]pyrimidin-3-yl)phenol] |
| < 100 nM | CN(c1ncc2c(-c3cc(C(F)(F)F)c(F)c(O)c3F)nn(C)c2c1Cl)C1CCOCC1 [Compound 12.08, 3-(7-Chloro-1-methyl-6-(methyl(tetrahydro-2H-pyran-4-yl)amino)-1H-pyrazolo[4,3-c]pyridin-3-yl)-2,6-difluoro-5-(trifluoromethyl)phenol] |
| 1000 to 30000 nM | Cn1nc(-c2cc(O)cc3ccccc23)c2cnc(N3CCN(S(C)(=O)=O)C4(CC4)C3)nc21 [Compound 12.09, 4-(1-Methyl-6-(4-(methylsulfonyl)-4,7-diazaspiro[2.5]octan-7-yl)-1H-pyrazolo[3,4-d]pyrimidin-3-yl)naphthalen-2-ol] |
| 100 to 1000 nM | CS(=O)(=O)N1CC=C(c2ccc3c(-c4cc(O)c(F)c(C(F)(F)F)c4)n[nH]c3c2)CC1 [Compound 14, 2-Fluoro-5-(6-(1-(methylsulfonyl)-1,2,3,6-tetrahydropyridin-4-yl)-1H-indazol-3-yl)-3-(trifluoromethyl)phenol] |
| < 100 nM | Cc1cc(-c2n[nH]c3cc(C4CCN(S(C)(=O)=O)CC4)ccc23)c(F)c(O)c1F [Compound 15.01, 2,6-Difluoro-3-methyl-5-(6-(1-(methylsulfony1)piperidin-4-y1)-1H-indazol-3-yl)phenol] |
| 100 to 1000 nM | Cn1nc(-c2cc(C(F)(F)F)c(F)c(O)c2F)c2cnc(C3CCN(S(C)(=O)=O)CC3)cc21 [Compound 15.03, 2,6-Difluoro-3-(1-methyl-6-(1-(methylsulfony1)piperidin-4-y1)-1H-pyrazolo[4,3-c]pyridin-3-y1)-5-(trifluoromethyl)phenol] |
| 100 to 1000 nM | Oc1cc(-c2n[nH]c3cc(-c4ccc(O)c(Cl)c4)ccc23)ccc1F [Compound 16, 2-Chloro-4-(3-(4-fluoro-3-hydroxyphenyl)-1H-indazol-6-yl)phenol] |
| 100 to 1000 nM | Cn1nc(-c2ccc(F)c(O)c2)c2ccc(-c3ccc(O)c(Cl)c3)cc21 [Compound 17, 2-Chloro-4-(3-(4-fluoro-3-hydroxyphenyl)-1-methyl-1H-indazol-6-yl)phenol] |
| < 100 nM | Cn1nc(-c2cc(C(F)(F)F)c(F)c(O)c2F)c2cnc(N3CCOC4(CCC4)C3)nc21 [Compound 18, 2,6-Difluoro-3-(1-methyl-6-(5-oxa-8-azaspiro[3.5]nonan-8-yl)-1H-pyrazolo[3,4-d]pyrimidin-3-yl)-5-(trifluoromethyl)phenol] |
| < 100 nM | Cn1nc(-c2cc(C(F)(F)F)c(F)c(O)c2F)c2cnc(N3CCOCC3CO)nc21 (stereo not drawn) [Compound 18.01, 2,6-Difluoro-3-(6-(3-(hydroxymethyl)morpholino)-1-methyl-1H-pyrazolo[3,4-d]pyrimidin-3-y1)-5-(trifluoromethyl)phenol] |
| < 100 nM | COCC1COCCN1c1ncc2c(-c3cc(C(F)(F)F)c(F)c(O)c3F)nn(C)c2n1 (stereo not drawn) [Compound 18.03, 2,6-Difluoro-3-(6-(3-(methoxymethyl)morpholino)-1-methyl-1H-pyrazolo[3,4-d]pyrimidin-3-y1)-5-(trifluoromethyl)phenol] |

same assay, conditions: at 10 uM compound; read-out: HSD17β13 % inhibition at 10 uM

| inhibition at 10 µM | Compound |
| --- | --- |
| < 20% | Cn1nc(-c2cccc(O)c2)c2cnc(N3CCN(S(C)(=O)=O)C4(CC4)C3)nc21 [Compound 12.10, 3-(1-Methyl-6-(4-(methylsulfonyl)-4,7-diazaspiro[2.5]octan-7-yl)-1H-pyrazolo[3,4-d]pyrimidin-3-yl)phenol] |
